Measurements from PMC7200681, “The calcitonin-like system is an ancient regulatory system of biomineralization” (Scientific Reports, 2020).

Experiments:
Set-up in all cases: species or system Mytilus galloprovincialis
[1] = test system: mussel mantle edge; assay: Ex-vivo incubation of mantle edge fragments, calcium quantification by MP-AES; conditions: 4 h at 19-20 °C; CALCIIa 10 μM or ouabain 2 mM alone; MP-AES at 393.366 nm; mean ± SEM; control 400.67 ±13.83 ppm; SEM
Description: Figure 7 Effect of the mussel calcitonin-like peptide on (A) calcium (ppm) concentration in the mantle edge and (B) calcium uptake by mantle cells of the Mediterranean mussel. (A) The quantity of calcium (ppm) present in the mantle edge after mussel CALCIIa peptide incubation was measured using a Microwave Plasma-Atomic Emission Spectrometer (MP-AES, Agilent) at 393.366 nm. A standard curve for calcium was performed before analysing the samples. In vitro mantle assays with CALCIIa peptide and with ouabain and control (culture medium and mantle) were repeated on at least 3 independent occasions. For each assay at least ten replicates were performed and the mantle edge distal to the umbo was used (one mantle fragment per replica). Prism GraphPad v5 software was used to assess the significance of differences between the groups using a One-way Anova and Tukey’s multiple comparison test. […] C - control (no peptide or ouabain); P - peptide (10 μM); O - ouabain (2 mM), OP - ouabain (2 mM) and peptide (10 μM); PreOP - pre -stimulation for 1 hour with the peptide followed by 4 hours incubation with OP. (B) Digital photographs of the mussel mantle cells in the presence (CALCIIa, 10 μM) or absence (control) of the mussel CALCIIa peptide. Calcium ions were stained with 50 mM of Calcein (green) and cell nuclei (blue) with DAPI (Acros Organics). An increase in cellular fluorescence represents an increase in calcium uptake. Fluorescence of the CALCIIa peptide stimulated cells was 1.9 times higher than the control. The average mantle cell size was 3–4 μm and fluorescent images were taken using a Leica DM IL microscope coupled to a Visicam HDMI 6 digital camera and photographs were analysed using ImageJ software (v. 1.52a) to calculate the fluorescence intensity and for image overlay. The scale bar is indicated.
The posterior mantle edge region of the Mediterranean mussel was collected and washed in culture medium. The composition of the culture medium was as described in[91] […]

[2] = test system: alpha-carbonic anhydrase (CA) esterase activity in mussel mantle edge; assay: Esterase (carbonic anhydrase) activity in mantle after ex-vivo incubation; conditions: after exposure to CALCIIa 10 μM or ouabain 2 mM; 4-Nitrophenyl acetate substrate; n = 6
Description: (§1) (A) Esterase activity and (B) Acid phosphatase activity. Enzyme activity was quantified in protein extracts from the mantle of control or challenged samples that were incubated with the mussel CALCIIa peptide. Values represent the mean ± SEM (CA, n = 6 and TRAP, n = 10) performed in duplicate. Prism GraphPad v5 software was used to assess the significance of the differences between the groups using One-way Anova and Tukey’s multiple comparison test. […] C - control; P - peptide (10 μM); O - ouabain (2 mM), OP - ouabain (2 mM) and peptide (10 μM); PreOP - pre stimulation for 1 hour with the peptide and 4 hours incubation with OP.
(§2) The posterior mantle edge region of the Mediterranean mussel was collected and washed in culture medium. The composition of the culture medium was as described in[91] […] The culture medium was supplemented with heat inactivated 2% FBS (SIGMA-ALDRICH), 0.1% penicillin: streptomycin antibiotic mix (10.000 U:10 mg/ml, SIGMA-ALDRICH) and 250 μg/ml sterile filtered 1:100 amphotericin B solution (Sigma-Aldrich). The posterior mantle edge from mussels was collected into culture medium and cut into fragments of approximately 1–2 mm in length. […]
Esterase activity in the mussel posterior mantle edge (n = 6/experimental group) was quantified using a colorimetric assay that measures the conversion of the substrate 4-Nitrophenyl acetate to p-nitrophenolate[92]. […]

[3] = test system: acid phosphatase (AP) activity in mussel mantle edge; assay: Acid phosphatase (TRAP) activity in mantle after ex-vivo incubation; conditions: after exposure to CALCIIa 10 μM or ouabain 2 mM; TRAP assay, pNPP, pH 5.3; p < 0.05
Description: as §1, §2
Acid phosphatase activity of the mantle protein extracts (n = 6/ group) was determined using 96 well-plates (GREINER, Germany) and a tartrate resistant acid phosphatase (TRAP) assay as described in[93].

With `C[C@@H]1O[C@@H](O[C@H]2C[C@@H](O)[C@]3(CO)[C@H]4[C@H](O)C[C@]5(C)[C@@H](C6=CC(=O)OC6)CC[C@]5(O)[C@@H]4CC[C@]3(O)C2)[C@H](O)[C@H](O)[C@H]1O` [Ouabain, ouabain] the “Calcium in the mantle edge after incubation” value [1] was 588.71 ± 42.92 ppm, the “CA esterase activity in mantle edge (in words)” value [2] was “neither of the bivalve CALCs or ouabain modified” and the “Acid phosphatase (AP) activity in mantle edge compared to control (in words)” value [3] was “significantly decreased”.
